Reference: patent US20240115527A1, “CXCR1/CXCR2 INHIBITORS FOR USE IN TREATING MYELOFIBROSIS” (Icahn School of Medicine at Mount Sinai, priority 2020, published 2024)

Assays:
Assay type in all cases: cell-based, human
[1] = system: MF CD34+ cells; assay: Clonal assays of MF CD34+ cells; JAK2V617F allele status of picked hematopoietic colonies; conditions: for number of colonies, Heter (JAK2V617F heterozygous) / number of colonies, Homo (JAK2V617F homozygous) / number of colonies, WT (JAK2 wild type) / number of colonies, Wild (JAK2 wild type): no ladarixin
Protocol: Individual hematopoietic colonies were randomly picked from clonal assays of CD34^+ cells from 6 MF cases and the JAK2V617F allele status was determined.
IL-8 alone increased the absolute numbers of JAK2V617F+ colonies, and the addition of Ladarixin reduced the numbers of JAK2V617F positive colonies stimulated by IL-8 (Tables 1-3).

[2] = system: MF CD34+, CD41+ and CD33+ cells; assay: Proliferation and lineage differentiation of MF mononuclear cells cultured with IL-8, flow cytometry; conditions: 50 ng/ml of IL-8, 3 days of incubation, FIG. 4A
Protocol: To evaluate the effects of IL-8 on MF CD34^+ cells proliferation and lineage differentiation, MF mononuclear cells (MNC cells) were cultured with StemSpan™ Serum-Free Expansion Medium (SFEM) containing 20 ng/ml of stem cell factor (SCF), thrombopoietin (TPO), FL-3L and IL-3 with or without 50 ng/ml of IL-8. The cells were harvested after 3 days of incubation. The proportion of hematopoietic cells belonging to specific lineages were determined using flow cytometry.

[3] = system: normal donor CD34+ cells; assay: Proliferation and lineage differentiation of normal donor cells cultured with IL-8, flow cytometry; conditions: incubated with IL-8, FIG. 4A
[4] = system: MF CD34+ cells; assay: Colony forming assay (CFU-GM) of cultured MF CD34+ cells with IL-8
Excerpt: FIGS. 5A, 5B. 5C, 5D, and 5E illustrate that a CXCR1/CXCR2 inhibitor reverses effects of IL-8 on MF CD34^+ cell colony formation. […] CFU-GM=colony-forming unit-granulocyte-macrophage. FIGS. 5B and 5C illustrate that IL-8 increased CFU-GM colony formation by MF CD34^+ cells in a dose dependent fashion and that the effects of IL-8 were inhibited by treatment with Ladx. FIG. 5B. Normal cells. FIG. 5C. MF cells. […] Con=control. IL-8 concentrations increase from left to right. […] P values were as follows: w/o Ladx: Con vs IL-8—10 ng: 0.159332; Con vs IL-8—20 ng: 0.011976; Con vs IL-8—50 ng: 0.00262; Con vs IL-8—100 ng: 0.00042; w/ 10 μM Ladx: Con vs Ladx: 0.315782; IL-8—10 ng vs plus Ladx: 0.295851; IL-8—20 ng vs plus Ladx: 0.077726; IL-8—50 ng vs plus Ladx: 0.031355; IL-8—100 ng vs plus Ladx: 0.081595.

[5] = system: normal CD34+ cells; assay: Hematopoietic colony formation by normal CD34+ cells with IL-8; conditions: increasing concentrations of IL-8, FIG. 5B
[6] = system: spleen stromal cells; assay: VEGF mRNA expression by spleen stromal cells after IL-8 silencing; conditions: addition of IL-8, FIG. 3C
Excerpt: FIGS. 3A, 3B, and 3C illustrate that reduction of IL-8 blocks VEGF, which is involved in the development of splenic endothelial cells (EC)/MF HSC niches. FIGS. 3A and 3B illustrate that LCN2 increases IL-8 and CXCL1 protein and mRNA levels in spleen stromal cells. Con: left bars. LCN2: right bars. FIG. 3C illustrates that IL-8 regulates VEGF expression. si=silencing. Ab=antibody. Con=control.
Lipocalin2 (LCN2) is a cytokine produced by MF marrow myeloid cells. Levels of LCN2 are 2-3 fold greater in the circulation of MF patients as compared to PV and ET patients and even higher as compared to healthy controls. […] IL-8 and the related chemokine CXCL1 are pro-angiogenic creating a cascade of cytokines (VEGF) contributing to the development of splenic EC/MF HSC niches. […] The positive impact of IL-8 on VEGF expression was blocked by an IL-8 neutralizing antibody.

IL-8: pro-inflammatory cytokine; CXCR1 and CXCR2 are its receptors
absolute numbers of JAK2V617F+ colonies ([1]; IL-8 alone, 6 MF cases): increased | number of colonies, Heter (JAK2V617F heterozygous) ([1]; MF1 CD34+ cells, IL-8 10 ng): 36 | number of colonies, Homo (JAK2V617F homozygous) ([1]; MF1 CD34+ cells, IL-8 10 ng): 0 | number of colonies, WT (JAK2 wild type) ([1]; MF1 CD34+ cells, IL-8 10 ng): 18 | number of colonies, Heter (JAK2V617F heterozygous) ([1]; MF1 CD34+ cells, IL-8 20 ng): 48 | number of colonies, Homo (JAK2V617F homozygous) ([1]; MF1 CD34+ cells, IL-8 20 ng): 0 | number of colonies, WT (JAK2 wild type) ([1]; MF1 CD34+ cells, IL-8 20 ng): 17 | number of colonies, Heter (JAK2V617F heterozygous) ([1]; MF1 CD34+ cells, IL-8 50 ng): 52 | number of colonies, Homo (JAK2V617F homozygous) ([1]; MF1 CD34+ cells, IL-8 50 ng): 0 | number of colonies, WT (JAK2 wild type) ([1]; MF1 CD34+ cells, IL-8 50 ng): 21 | number of colonies, Heter (JAK2V617F heterozygous) ([1]; MF1 CD34+ cells, IL-8 100 ng): 68 | number of colonies, Homo (JAK2V617F homozygous) ([1]; MF1 CD34+ cells, IL-8 100 ng): 0 | number of colonies, WT (JAK2 wild type) ([1]; MF1 CD34+ cells, IL-8 100 ng): 0 | number of colonies, Heter (JAK2V617F heterozygous) ([1]; MF2 CD34+ cells, IL-8 10 ng): 0 | number of colonies, Homo (JAK2V617F homozygous) ([1]; MF2 CD34+ cells, IL-8 10 ng): 0 | number of colonies, WT (JAK2 wild type) ([1]; MF2 CD34+ cells, IL-8 10 ng): 44 | number of colonies, Heter (JAK2V617F heterozygous) ([1]; MF2 CD34+ cells, IL-8 20 ng): 3 | number of colonies, Homo (JAK2V617F homozygous) ([1]; MF2 CD34+ cells, IL-8 20 ng): 0 | number of colonies, WT (JAK2 wild type) ([1]; MF2 CD34+ cells, IL-8 20 ng): 38 | number of colonies, Heter (JAK2V617F heterozygous) ([1]; MF2 CD34+ cells, IL-8 50 ng): 7 | number of colonies, Homo (JAK2V617F homozygous) ([1]; MF2 CD34+ cells, IL-8 50 ng): 0 | number of colonies, WT (JAK2 wild type) ([1]; MF2 CD34+ cells, IL-8 50 ng): 41 | number of colonies, Heter (JAK2V617F heterozygous) ([1]; MF2 CD34+ cells, IL-8 100 ng): 3 | number of colonies, Homo (JAK2V617F homozygous) ([1]; MF2 CD34+ cells, IL-8 100 ng): 0 | number of colonies, WT (JAK2 wild type) ([1]; MF2 CD34+ cells, IL-8 100 ng): 52 | number of colonies, Heter (JAK2V617F heterozygous) ([1]; MF3 CD34+ cells, IL-8 10 ng): 27 | number of colonies, Homo (JAK2V617F homozygous) ([1]; MF3 CD34+ cells, IL-8 10 ng): 80 | number of colonies, WT (JAK2 wild type) ([1]; MF3 CD34+ cells, IL-8 10 ng): 36 | number of colonies, Heter (JAK2V617F heterozygous) ([1]; MF3 CD34+ cells, IL-8 20 ng): 79 | number of colonies, Homo (JAK2V617F homozygous) ([1]; MF3 CD34+ cells, IL-8 20 ng): 63 | number of colonies, WT (JAK2 wild type) ([1]; MF3 CD34+ cells, IL-8 20 ng): 31 | number of colonies, Heter (JAK2V617F heterozygous) ([1]; MF3 CD34+ cells, IL-8 50 ng): 30 | number of colonies, Homo (JAK2V617F homozygous) ([1]; MF3 CD34+ cells, IL-8 50 ng): 99 | number of colonies, WT (JAK2 wild type) ([1]; MF3 CD34+ cells, IL-8 50 ng): 30 | number of colonies, Heter (JAK2V617F heterozygous) ([1]; MF3 CD34+ cells, IL-8 100 ng): 32 | number of colonies, Homo (JAK2V617F homozygous) ([1]; MF3 CD34+ cells, IL-8 100 ng): 95 | number of colonies, WT (JAK2 wild type) ([1]; MF3 CD34+ cells, IL-8 100 ng): 42 | number of colonies, Heter (JAK2V617F heterozygous) ([1]; MF4 CD34+ cells, IL-8 10 ng): 183 | number of colonies, Homo (JAK2V617F homozygous) ([1]; MF4 CD34+ cells, IL-8 10 ng): 12 | number of colonies, Wild (JAK2 wild type) ([1]; MF4 CD34+ cells, IL-8 10 ng): 0 | number of colonies, Heter (JAK2V617F heterozygous) ([1]; MF4 CD34+ cells, IL-8 20 ng): 171 | number of colonies, Homo (JAK2V617F homozygous) ([1]; MF4 CD34+ cells, IL-8 20 ng): 0 | number of colonies, Wild (JAK2 wild type) ([1]; MF4 CD34+ cells, IL-8 20 ng): 0 | number of colonies, Heter (JAK2V617F heterozygous) ([1]; MF4 CD34+ cells, IL-8 50 ng): 190 | number of colonies, Homo (JAK2V617F homozygous) ([1]; MF4 CD34+ cells, IL-8 50 ng): 0 | number of colonies, Wild (JAK2 wild type) ([1]; MF4 CD34+ cells, IL-8 50 ng): 0 | number of colonies, Heter (JAK2V617F heterozygous) ([1]; MF4 CD34+ cells, IL-8 100 ng): 174 | number of colonies, Homo (JAK2V617F homozygous) ([1]; MF4 CD34+ cells, IL-8 100 ng): 12 | number of colonies, Wild (JAK2 wild type) ([1]; MF4 CD34+ cells, IL-8 100 ng): 12 | number of colonies, Heter (JAK2V617F heterozygous) ([1]; MF5 CD34+ cells, IL-8 10 ng): 0 | number of colonies, Homo (JAK2V617F homozygous) ([1]; MF5 CD34+ cells, IL-8 10 ng): 0 | number of colonies, Wild (JAK2 wild type) ([1]; MF5 CD34+ cells, IL-8 10 ng): 124 | number of colonies, Heter (JAK2V617F heterozygous) ([1]; MF5 CD34+ cells, IL-8 20 ng): 0 | number of colonies, Homo (JAK2V617F homozygous) ([1]; MF5 CD34+ cells, IL-8 20 ng): 0 | number of colonies, Wild (JAK2 wild type) ([1]; MF5 CD34+ cells, IL-8 20 ng): 142 | number of colonies, Heter (JAK2V617F heterozygous) ([1]; MF5 CD34+ cells, IL-8 50 ng): 0 | number of colonies, Homo (JAK2V617F homozygous) ([1]; MF5 CD34+ cells, IL-8 50 ng): 0 | number of colonies, Wild (JAK2 wild type) ([1]; MF5 CD34+ cells, IL-8 50 ng): 115 | number of colonies, Heter (JAK2V617F heterozygous) ([1]; MF5 CD34+ cells, IL-8 100 ng): 0 | number of colonies, Homo (JAK2V617F homozygous) ([1]; MF5 CD34+ cells, IL-8 100 ng): 0 | number of colonies, Wild (JAK2 wild type) ([1]; MF5 CD34+ cells, IL-8 100 ng): 115 | number of colonies, Heter (JAK2V617F heterozygous) ([1]; MF6 CD34+ cells, IL-8 10 ng): 0 | number of colonies, Homo (JAK2V617F homozygous) ([1]; MF6 CD34+ cells, IL-8 10 ng): 0 | number of colonies, Wild (JAK2 wild type) ([1]; MF6 CD34+ cells, IL-8 10 ng): 115 | number of colonies, Heter (JAK2V617F heterozygous) ([1]; MF6 CD34+ cells, IL-8 20 ng): 0 | number of colonies, Homo (JAK2V617F homozygous) ([1]; MF6 CD34+ cells, IL-8 20 ng): 0 | number of colonies, Wild (JAK2 wild type) ([1]; MF6 CD34+ cells, IL-8 20 ng): 131 | number of colonies, Heter (JAK2V617F heterozygous) ([1]; MF6 CD34+ cells, IL-8 50 ng): 8 | number of colonies, Homo (JAK2V617F homozygous) ([1]; MF6 CD34+ cells, IL-8 50 ng): 0 | number of colonies, Wild (JAK2 wild type) ([1]; MF6 CD34+ cells, IL-8 50 ng): 125 | number of colonies, Heter (JAK2V617F heterozygous) ([1]; MF6 CD34+ cells, IL-8 100 ng): 12 | number of colonies, Homo (JAK2V617F homozygous) ([1]; MF6 CD34+ cells, IL-8 100 ng): 0 | number of colonies, Wild (JAK2 wild type) ([1]; MF6 CD34+ cells, IL-8 100 ng): 87 | percentage of MF CD34+, CD41+ and CD33+ cells [2]: increased | percentage of normal donor CD34+, CD41+ and CD33+ cell populations [3]: decreased | numbers of MF CFU-GM colonies ([4]; IL-8 at doses of 50 ng/ml and 100 ng/ml, FIG. 5C): increased | colony output of cultured MF CD34+ cells compared to WT CD34+ cells ([4]; cultured with IL-8, FIG. 5A): enhanced colony output | CFU-GM colony formation by MF samples with the highest expression of CXCR1/CXCR2 ([4]; treatment with IL-8, FIG. 5D): increased | hematopoietic colony formation by normal CD34+ cells [5]: did not affect | effect on decrease of VEGF mRNA expression caused by silencing of IL-8 [6]: reversed this effect
